Activity calls are given as the source filed them.
How the values were obtained:
[1] = HIV-1 Vif–A3G interaction blockers – biochemical, TR-FRET, GST-Vif 1-94, biotin-A3G peptide, dose response retest, primary screen (AID 1117319); type: functional;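 note: TR-FRET signal of purified GST-Vif binding a biotinylated A3G peptide; inhibitors lower the FRET signal by blocking Vif and A3G binding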
[2] = biological target: T1, Corticotropin-releasing factor receptor 2/Corticotropin-releasing factor-binding protein (Homo sapiens, UniProt P24387+Q13324); experiment: Dose Response confirmation of uHTS hits for small molecule antagonists of the CRF-binding protein and CRF-R2 receptor complex.; type: functional; conditions: read-out: IC50_Mean
T1 sequence (Q13324 whole entry): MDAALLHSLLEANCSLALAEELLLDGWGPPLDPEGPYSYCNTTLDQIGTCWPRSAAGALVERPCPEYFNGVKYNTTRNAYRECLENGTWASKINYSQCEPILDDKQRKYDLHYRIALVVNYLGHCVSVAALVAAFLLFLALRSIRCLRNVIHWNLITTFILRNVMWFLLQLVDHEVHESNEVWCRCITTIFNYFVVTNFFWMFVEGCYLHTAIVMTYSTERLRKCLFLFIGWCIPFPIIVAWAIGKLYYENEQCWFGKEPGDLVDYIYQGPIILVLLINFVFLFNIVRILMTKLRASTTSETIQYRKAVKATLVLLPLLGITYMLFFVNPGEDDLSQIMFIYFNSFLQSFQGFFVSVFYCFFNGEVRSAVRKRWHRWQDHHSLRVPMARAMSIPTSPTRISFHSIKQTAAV
T1 sequence (P24387 whole entry): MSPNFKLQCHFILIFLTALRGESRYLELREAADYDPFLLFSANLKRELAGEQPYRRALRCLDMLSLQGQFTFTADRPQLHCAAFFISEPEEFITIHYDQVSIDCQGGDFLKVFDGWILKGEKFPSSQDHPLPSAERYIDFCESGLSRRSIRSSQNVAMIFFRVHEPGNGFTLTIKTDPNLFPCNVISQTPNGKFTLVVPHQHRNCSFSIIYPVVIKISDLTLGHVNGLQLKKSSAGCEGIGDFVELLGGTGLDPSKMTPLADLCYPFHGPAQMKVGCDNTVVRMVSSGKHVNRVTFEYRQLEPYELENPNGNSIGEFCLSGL

[3] = HEK-293T cell viability reduction – luminescence, B-cell screen hits, cytotoxicity control for BCR NF-kB inhibitor project, dose response (AID 489021); type: functional, cell-based;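 note: HEK-293T cells carrying an NF-kB luciferase reporter; cells exposed to compound for about 14 hours before viability readout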
[4] = biological target: T1, Corticotropin-releasing factor receptor 2/Corticotropin-releasing factor-binding protein; experiment: activators of CRF receptor 2 with binding protein – uHTS hits, confirmation (AID 602473); type: functional; conditions: read-out: EC50_Mean
CAAX prenyl protease 2 = biological target: T2, CAAX prenyl protease 2 (Saccharomyces cerevisiae S288c, UniProt Q03530); type: biochemical
T2 sequence (Q03530 whole entry): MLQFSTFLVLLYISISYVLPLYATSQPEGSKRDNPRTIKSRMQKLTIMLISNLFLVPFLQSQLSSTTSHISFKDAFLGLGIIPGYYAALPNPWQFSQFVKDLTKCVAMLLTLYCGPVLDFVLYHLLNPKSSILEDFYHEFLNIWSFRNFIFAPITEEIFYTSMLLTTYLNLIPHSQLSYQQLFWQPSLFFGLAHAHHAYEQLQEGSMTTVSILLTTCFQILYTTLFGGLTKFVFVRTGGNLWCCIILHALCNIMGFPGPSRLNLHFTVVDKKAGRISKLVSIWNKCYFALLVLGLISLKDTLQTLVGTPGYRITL

Trypsin = Trypsin (Sus scrofa, UniProt P00761); experiment: trypsin protease activity blockade – biochemical, quenched peptide fluorescence, cherry-pick, selectivity assay for Rce1 protease inhibitor project, dose response (AID 488789)
INS1 = experiment: INS-1E survival protection against cytokine death – cell-based, luminescence, retest, dose response (AID 449756); type: functional; conditions: Rattus norvegicus;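 note: cell death triggered by IL-1 beta plus TNF-alpha plus IFN-gamma mixture; protective hits raise ATP signal compared with cytokine alone wells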
[5] = biological target: FAD-linked sulfhydryl oxidase ALR (Homo sapiens, UniProt P55789); experiment: ALR-catalysed DTT oxidation blockers – biochemical, H2O2 detection, luminescence, cherry-pick, dose response (AID 493248)
[6] = fluconazole-exposed Candida albicans growth modulators – fluorescence, retest, confirmation (AID 2467); type: functional, cell-based
[7] = biological target: T3, Serine/threonine-protein phosphatase (Candida dubliniensis (strain CD36 / CBS 7987 / NCPF 3949 / NRRLY-17841) (Yeast), UniProt B9W6M3); experiment: blockers of CaCl2-induced CDRE-lacZ signaling – S. cerevisiae, luminescence, secondary, dose response (AID 2388); type: functional, cell-based;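 note: yeast reporter cells carrying a calcineurin-responsive lacZ construct stimulated with calcium chloride; luminescent beta-galactosidase reporter signal in whole cells rather than isolated phosphatase activity; potency for inhibition where a drop in reporter signal means calcineurin blockade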
T3 sequence (B9W6M3 whole entry): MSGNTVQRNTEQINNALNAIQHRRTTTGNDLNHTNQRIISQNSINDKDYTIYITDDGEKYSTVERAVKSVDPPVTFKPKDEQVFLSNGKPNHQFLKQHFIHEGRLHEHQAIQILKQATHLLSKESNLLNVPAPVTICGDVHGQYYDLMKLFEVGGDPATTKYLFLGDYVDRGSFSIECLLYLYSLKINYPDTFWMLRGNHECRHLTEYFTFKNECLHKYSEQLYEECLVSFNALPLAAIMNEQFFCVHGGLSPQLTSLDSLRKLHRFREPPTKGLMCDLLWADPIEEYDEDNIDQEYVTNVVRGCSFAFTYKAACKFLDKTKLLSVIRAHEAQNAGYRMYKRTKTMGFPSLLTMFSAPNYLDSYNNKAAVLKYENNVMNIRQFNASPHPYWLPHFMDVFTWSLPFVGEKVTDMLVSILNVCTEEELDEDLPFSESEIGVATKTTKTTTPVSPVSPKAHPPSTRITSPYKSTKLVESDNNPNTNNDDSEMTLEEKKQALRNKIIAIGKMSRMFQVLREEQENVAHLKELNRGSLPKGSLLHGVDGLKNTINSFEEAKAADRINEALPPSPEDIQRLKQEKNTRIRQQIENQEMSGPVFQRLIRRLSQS

[8] = biological target: ATP-dependent molecular chaperone HSP82 (Candida albicans (strain WO-1) (Yeast), UniProt C4YTQ8); experiment: steroid-induced GRE reporter decrease in yeast – S. cerevisiae, luminescence, Hsp90 inhibitor project, dose response (AID 2400); type: functional, cell-based;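 note: beta-galactosidase luminescence from glucocorticoid response element reporter as proxy for Hsp90 function; inhibitor potency where signal loss means Hsp90 inhibition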
Staphylococcus aureus = experiment: Inhibitors of Bacterial Quorum Sensing Structure Activity Relationship (SAR) Analysis: Dose Response Assay. [Related pubchem assays: 700, 527 ]; type: functional, organism-based
[9] = NIH-3T3 fibroblast cytotoxicity, dose response, cytotoxicity control, cell-based, fluorescence, Alamar Blue, secondary assay (AID 2327); type: functional;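 note: NIH-3T3 mouse fibroblasts cultured with fluconazole at 8 µg/mL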
ORF 73 = biological target: T4, ORF 73 (Human herpesvirus 8, UniProt O40947); experiment: KSHV LANA DNA-binding disruption – biochemical, fluorescence polarization, cherry-picked samples, dose response (AID 504725); design: species or system Human gammaherpesvirus 8;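 note: fluorescence polarization of a labeled DNA duplex reporting LANA DNA binding; potency is for inhibitors that block LANA binding to the DNA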
T4 sequence (O40947 whole entry): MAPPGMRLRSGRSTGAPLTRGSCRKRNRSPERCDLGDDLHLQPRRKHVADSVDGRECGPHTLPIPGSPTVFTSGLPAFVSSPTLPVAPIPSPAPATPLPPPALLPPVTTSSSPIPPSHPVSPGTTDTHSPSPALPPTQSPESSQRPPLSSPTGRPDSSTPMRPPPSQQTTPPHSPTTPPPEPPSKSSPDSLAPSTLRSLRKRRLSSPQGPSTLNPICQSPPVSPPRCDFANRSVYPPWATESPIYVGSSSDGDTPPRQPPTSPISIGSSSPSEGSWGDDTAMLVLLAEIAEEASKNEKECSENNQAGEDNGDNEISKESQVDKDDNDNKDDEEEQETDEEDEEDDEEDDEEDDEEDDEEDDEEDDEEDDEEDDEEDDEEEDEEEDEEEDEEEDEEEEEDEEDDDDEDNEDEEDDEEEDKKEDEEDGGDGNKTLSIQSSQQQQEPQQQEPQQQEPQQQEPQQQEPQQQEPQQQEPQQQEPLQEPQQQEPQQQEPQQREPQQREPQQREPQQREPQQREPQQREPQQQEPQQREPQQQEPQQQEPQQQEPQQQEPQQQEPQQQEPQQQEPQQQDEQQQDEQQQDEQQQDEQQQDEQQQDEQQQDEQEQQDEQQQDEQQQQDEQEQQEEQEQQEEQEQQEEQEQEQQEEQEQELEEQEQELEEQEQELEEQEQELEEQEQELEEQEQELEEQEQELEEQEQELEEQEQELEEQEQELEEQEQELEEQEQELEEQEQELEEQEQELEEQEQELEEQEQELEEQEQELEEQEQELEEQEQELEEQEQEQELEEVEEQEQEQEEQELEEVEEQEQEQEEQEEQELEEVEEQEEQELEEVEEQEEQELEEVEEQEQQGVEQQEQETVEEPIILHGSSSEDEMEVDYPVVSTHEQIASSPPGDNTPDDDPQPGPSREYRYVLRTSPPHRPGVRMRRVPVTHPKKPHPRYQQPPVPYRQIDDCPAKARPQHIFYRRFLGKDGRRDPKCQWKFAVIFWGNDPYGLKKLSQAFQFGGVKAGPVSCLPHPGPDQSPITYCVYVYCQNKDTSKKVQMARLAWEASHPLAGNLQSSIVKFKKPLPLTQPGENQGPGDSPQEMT

HeLa = experiment: viability loss in HeLa cells – cell-based, 24 h, cherry-picked samples, cytotoxicity control, dose response (AID 504726); type: functional; conditions: Homo sapiens;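 note: potency for cytotoxicity as loss of luminescence signal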

Chain of FAD-linked sulfhydryl oxidase ALR (P55789 whole entry): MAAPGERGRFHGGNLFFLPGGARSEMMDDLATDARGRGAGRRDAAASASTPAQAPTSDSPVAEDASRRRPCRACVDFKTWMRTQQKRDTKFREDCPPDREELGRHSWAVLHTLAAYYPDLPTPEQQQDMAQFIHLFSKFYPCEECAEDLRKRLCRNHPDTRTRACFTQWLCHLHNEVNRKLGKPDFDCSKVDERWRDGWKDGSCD
Chain of ATP-dependent molecular chaperone HSP82 (C4YTQ8 whole entry): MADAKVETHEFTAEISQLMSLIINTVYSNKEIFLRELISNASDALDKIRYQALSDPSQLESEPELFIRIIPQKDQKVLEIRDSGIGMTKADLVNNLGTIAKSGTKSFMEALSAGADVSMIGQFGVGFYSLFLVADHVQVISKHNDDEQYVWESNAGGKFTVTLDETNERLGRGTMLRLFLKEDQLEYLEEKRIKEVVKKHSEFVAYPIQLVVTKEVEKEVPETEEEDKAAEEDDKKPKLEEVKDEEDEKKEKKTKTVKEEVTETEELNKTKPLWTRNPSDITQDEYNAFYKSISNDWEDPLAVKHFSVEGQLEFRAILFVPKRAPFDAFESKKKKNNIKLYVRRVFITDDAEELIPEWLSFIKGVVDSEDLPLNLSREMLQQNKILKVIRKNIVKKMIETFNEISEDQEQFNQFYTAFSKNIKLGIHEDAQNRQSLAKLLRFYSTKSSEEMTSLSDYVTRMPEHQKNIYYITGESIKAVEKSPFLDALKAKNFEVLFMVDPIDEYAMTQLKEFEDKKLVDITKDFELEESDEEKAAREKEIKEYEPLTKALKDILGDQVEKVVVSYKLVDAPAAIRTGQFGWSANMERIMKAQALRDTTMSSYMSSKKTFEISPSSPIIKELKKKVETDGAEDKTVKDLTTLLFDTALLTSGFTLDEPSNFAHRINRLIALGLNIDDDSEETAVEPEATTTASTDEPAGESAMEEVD
Chain of Trypsin (P00761 whole entry): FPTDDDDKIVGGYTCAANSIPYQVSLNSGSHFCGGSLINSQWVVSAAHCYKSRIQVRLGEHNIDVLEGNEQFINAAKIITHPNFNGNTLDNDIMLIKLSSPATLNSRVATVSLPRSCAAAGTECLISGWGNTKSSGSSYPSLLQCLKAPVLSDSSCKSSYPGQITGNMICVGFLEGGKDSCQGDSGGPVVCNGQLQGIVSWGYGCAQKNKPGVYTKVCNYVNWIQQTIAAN

Structure (SMILES): COc1ccc(OC)c(NC(=O)c2[nH]c(C)c(C(C)=O)c2C)c1
- IC50 [1]: > 100 µM (active)
- IC50 [2]: > 47.1 µM (inactive)
- IC50 [3]: > 80 µM (inactive)
- EC50 [4]: > 53 µM (inactive)

Structure (SMILES): COc1ccc(-c2c[n+]3c4n2CCCCC4=C(c2ccc(Br)cc2)C3)cc1
- AC50 (CAAX prenyl protease 2): 1.87 µM (active)
- AC50 (Trypsin): 3.58 µM (active)
- AC50 (INS1): 2.88 µM (active)

Structure (SMILES): O=C1CSC(NC(=O)N2c3ccccc3Sc3ccccc32)=N1
- AC50 [5]: 0.335 µM (active)
- EC50 [6]: 2.32 µM (active)
- EC50 [7]: > 180 µM (inactive)
- EC50 [8]: > 150 µM (inactive)
- IC50 (Staphylococcus aureus): 0.278 µM (active)
- EC50 [9]: > 150 µM (inactive)

Structure (SMILES): COC(=O)C(NC(=O)C(C)NC(=O)OCc1ccccc1)C(C)C (stereo not given)
- AC50 (ORF 73): 70.8 µM (active)
- AC50 (HeLa): 68.2 µM (active)

— ChEMBL document CHEMBL1201862, “PubChem BioAssay data set” (2004)
